According to patent US6087334A, “Anti-diabetic peptides” (Amylin Pharmaceuticals, Inc., priority 1998, dated 2000):
Where a SMILES comes first, the peptide text is derived from it. Bridges are numbered along the chain shown (N, C = ends).

What follows are compounds tested against T1, C1a receptor (C1a-type calcitonin receptor) (Rattus norvegicus, UniProt P32214) (assay: biochemical). Conditions: HEK293 plasma membranes, [35S]-GTPγS 200 pM; read-out: ED50 (nM) Example B (C1a GTPγS).
T1 construct: expressed in transfected cells
T1 sequence (P32214 25-479 isoform P32214-2 limits assumed): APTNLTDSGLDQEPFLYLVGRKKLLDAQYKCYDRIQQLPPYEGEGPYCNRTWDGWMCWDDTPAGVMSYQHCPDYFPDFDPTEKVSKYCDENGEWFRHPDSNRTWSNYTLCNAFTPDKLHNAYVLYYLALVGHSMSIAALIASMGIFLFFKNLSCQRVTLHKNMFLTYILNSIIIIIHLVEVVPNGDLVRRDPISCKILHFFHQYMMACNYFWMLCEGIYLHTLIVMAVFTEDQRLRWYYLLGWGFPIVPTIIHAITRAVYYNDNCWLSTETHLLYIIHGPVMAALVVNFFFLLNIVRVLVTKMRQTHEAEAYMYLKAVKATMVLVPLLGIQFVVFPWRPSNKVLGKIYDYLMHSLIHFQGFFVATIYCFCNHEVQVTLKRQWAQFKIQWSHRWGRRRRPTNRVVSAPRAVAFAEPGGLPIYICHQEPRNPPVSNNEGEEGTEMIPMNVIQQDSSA
Source text: Peptide compounds of the present invention may be evaluated for agonist activity using the procedures described in Example B. The plasma membrane preparation of a 7-transmembrane-G-protein coupled receptor (GPCR) contains not only the receptor but also the G-proteins which constitute the first step in the intracellular signal transduction process when the receptor is activated by an agonist ligand. […] Agonist activation of a GPCR is accompanied by displacement of GDP by GTP from this site. Thus, measurement of the binding of a radiolabelled ligand, namely [^35 S]-GTPγS, for this binding site constitutes a measure of agonist potency for a given ligand. For agonism at the C1a receptor, a similar membrane preparation to that described below for the C1a binding studies is used. C1a pcDNA construction and transfection were carried out as previously described (Albrandt et al. 1993, FEBS Letters, 325:225-232). HEK293 cell lines showing stable expression of the rat C1a-type calcitonin receptor (C1a/293) or the human C1a-type calcitonin receptor (1154/293) were selected by G418 resistance and limiting dilution culture methods. Plasma membranes were collected from homogenized HEK293 cells and used in the [^35 S]-GTPγS assay. Individual test peptides at concentrations spanning 6 log units starting at around […] were examined for their ability to bind [^35 S]-GTPγS. Maximum agonist-specific binding was measured in the presence of 1 μM human calcitonin, constitutive binding was measured in the presence of buffer alone. Peptide potencies (EC50 's for concentration response curves) were calculated by non-linear regression using Prism™ (version 2.01, GraphPAD Software, San Diego, Calif.).
[^35 S]-GTPγS C1a Agonist Studies
Evaluation of the agonist activity of compounds versus the C1a receptor was carried out as follows:
Reference peptides used in these studies were purchased from Bachem (Torrance, Calif.). All other chemicals were of the highest commercial grade. [^35 S]-GTPγS was purchased from NEN Life Science Products, Inc., Pittsburgh, Pa. [^125 I]-human calcitonin was purchased from Amersham Pharmacia Biotech, Inc., Piscataway, N.J.
Methods for C1a pcDNA construction and transfection have been previously described (Albrandt, et al. 1993, FEBS Letters, 325:225-232). HEK293 cell lines stably expressing the rat C1a-type calcitonin receptor (C1a/293) or the human C1a-type calcitonin receptor (1154/293) were selected by G418 resistance and limiting dilution culture methods.
Confluent cells were detached from tissue culture flasks by incubation with 5 mM EDTA in PBS. Cells were homogenized in ice-cold 20 mM HEPES, pH 7.4 with a Polytron homogenizer. Plasma membranes were collected using three cycles of washing in fresh buffer followed by centrifugation for 15 minutes at 48,000×g. The final membrane pellet was resuspended in 20 mM HEPES buffer containing 0.2 mM phenylmethylsulfonyl fluoride (PMSF) and stored at -70° C.
Assay buffer contained 1 μM GDP, 1 mM EDTA, 5 mM MgCl2, 20 mM Hepes, and 150 mM NaCl, pH 7.4. Membranes (7.5 μg membrane protein/well), [^35 S]-GTPγS (200 pM), and peptides were combined in 200 μL buffer in 96-well microtiter plates. After a 75 minute incubation at room temperature, well contents were harvested onto GF/B glass fiber pads using a Tomtec Mach II plate harvestor (Hamden, Conn.). Dried pads were combined with scintillant and counted on a Wallac LKB Beta Plate scintillation counter. For concentration response curves, samples were run in duplicate over a 6 log concentration range starting at 10^-6 M or 10^-7 M. Maximum agonist-specific binding was measured in the presence of 1 μM human calcitonin, constitutive binding was measured in the presence of buffer alone.
Peptide potencies (1C50 's for competitive binding, and EC50 's for concentration response curves) were calculated by non-linear regression using Prism (version 2.01, GraphPAD Software, San Diego, Calif.).

Compared with `CC(C)C[C@H](NC(=O)[C@H](CCCNC(=N)N)NC(=O)[C@H](C)NC(=O)[C@@H](NC(=O)[C@H](C)NC(=O)[C@@H]1CSSC[C@H](NC(=O)[C@@H](N)CCCCN)C(=O)N[C@@H](CC(N)=O)C(=O)N[C@@H]([C@@H](C)O)C(=O)N[C@@H](C)C(=O)N[C@@H]([C@@H](C)O)C(=O)N1)[C@@H](C)O)C(=O)N[C@@H](C)C(=O)N[C@@H](C)C(=O)N[C@@H](Cc1ccccc1)C(=O)N[C@@H](CC(C)C)C(=O)N[C@@H](C)C(=O)N[C@@H](CCCNC(=N)N)C(=O)N[C@@H](CO)C(=O)N[C@@H](CO)C(=O)NCC(=O)N[C@@H](Cc1ccc(O)cc1)C(N)=O` [Example 1] (H-KCNTATCATARLAAFLARSSGY-NH2; disulfide 2-7), `CC(C)C[C@H](NC(=O)[C@H](CCCNC(=N)N)NC(=O)[C@H](C)NC(=O)[C@@H](NC(=O)[C@H](C)NC(=O)[C@@H]1CSSC[C@H](NC(=O)[C@@H](N)CCCCN)C(=O)N[C@@H](CC(N)=O)C(=O)N[C@@H]([C@@H](C)O)C(=O)N[C@@H](C)C(=O)N[C@@H]([C@@H](C)O)C(=O)N1)[C@@H](C)O)C(=O)N[C@@H](C)C(=O)N[C@@H](CC(N)=O)C(=O)N[C@@H](Cc1ccccc1)C(=O)N[C@@H](CC(C)C)C(=O)N[C@H](C(=O)N[C@@H](CCCNC(=N)N)C(=O)N[C@@H](CO)C(=O)N[C@@H](CO)C(=O)NCC(=O)N[C@@H](Cc1ccc(O)cc1)C(N)=O)C(C)C` [Example 5] (H-KCNTATCATARLANFLVRSSGY-NH2; disulfide 2-7) is 7.9-fold higher in EC50: 0.7 nM for the first, 5.5 nM for the second.

Going from `CC(C)C[C@H](NC(=O)[C@H](CCCNC(=N)N)NC(=O)[C@H](C)NC(=O)[C@@H](NC(=O)[C@H](C)NC(=O)[C@@H]1CSSC[C@H](N)C(=O)N[C@@H](CC(N)=O)C(=O)N[C@@H]([C@@H](C)O)C(=O)N[C@@H](C)C(=O)N[C@@H]([C@@H](C)O)C(=O)N1)[C@@H](C)O)C(=O)N[C@@H](C)C(=O)N[C@@H](C)C(=O)N[C@@H](Cc1ccccc1)C(=O)N[C@@H](CC(C)C)C(=O)N[C@@H](C)C(=O)N[C@@H](CCCNC(=N)N)C(=O)N[C@@H](CO)C(N)=O` [Example 3] (H-CNTATCATARLAAFLARS-NH2; disulfide 1-6) to `CC(C)C[C@H](NC(=O)[C@H](CCCNC(=N)N)NC(=O)[C@H](C)NC(=O)[C@@H](NC(=O)[C@H](C)NC(=O)[C@H](C)NC(=O)[C@@H](NC(=O)[C@H](CO)NC(=O)[C@@H](N)CC(C)C)[C@@H](C)O)[C@@H](C)O)C(=O)N[C@@H](C)C(=O)N[C@@H](C)C(=O)N[C@@H](Cc1ccccc1)C(=O)N[C@@H](CC(C)C)C(=O)N[C@@H](C)C(=O)N[C@@H](CCCNC(=N)N)C(=O)N[C@@H](CO)C(N)=O` [Example 6] (H-LSTAATARLAAFLARS-NH2), the EC50 falls from 1.2 nM to 0.58 nM (2.1-fold).
